Assay: In vivo biodistribution of co-delivered barcoded LNPs by Next Generation Sequencing of barcodes in tissues
Parameters: species or system BALB/c mice
Conditions: liver, kidney, lung, heart and brain; tail vein, 0.01 mg/kg per barcoded payload; compared with formulations using Lipids 1 and 3
Description: LNP/barcode complexes were prepared as described in Example 5. LNP/Barcode complex formulations were made by mixing different LNP/Barcode complex formulations together in equal parts (unless otherwise noted), to form Study Groups 1 and 2. Study Group 1 was dosed with a complex formulation that included formulations F-1, F-2, F-3, F-4, F-5, F-6, F-7, F-8 and F-16 in equal parts. Study Group 2 was dosed with a complex formulation that included formulations F-9, F-10, F-11, F-12, F-13, F-14, F-15, F-16 and F-17 in equal parts, except for F-10 which was mixed at 1/10th the concentration. BALB/c mice were injected via tail vein with 0.01 mg/kg (per unique barcoded payload, except for oRNA2A in F-10, which was dosed at 0.001 mg/kg) for each of Study Groups 1 and 2 in a total volume of 5 mL/kg. Each Study Group was dosed in 6 mice, and an additional 3 mice were dosed with PBS control. At 6 hr post injection, 3 animals from Study Group 1 were humanely euthanized by CO2 inhalation and organs including liver, spleen, lung, heart, kidney, brain, and blood were collected and snap frozen using liquid nitrogen. […] BLI images were detected in the auto-exposure mode. The BLI signal was quantitated using Living Image 4.7 software (Perkin Elmer) following the manufacturer's instruction. After BLI analysis the weights of the collected organs was measured. […]

In the case of `CCCCCCCCCCCCCCCCCC[N+](C)(CCCCCCCCCCCCCCCCCC)CCNC(=N)N.[Cl-]` [Lipid 2], the “delivery to organs (barcode ratios normalized to the input material)” value is reported as “superior delivery in most organs tested”.

Reference: patent US20240200118A1, “COMPOSITIONS AND METHODS FOR OPTIMIZING TROPISM OF DELIVERY SYSTEMS FOR RNA” (Renagade Therapeutics Management Inc., priority 2021, published 2024)
